This is an account of results in PubChem BioAssay (NCI).

Some test systems named below: OVCAR-8 ovarian; SNB-19 CNS; LOX IMVI melanoma; IGROV1 ovarian; SK-MEL-5 melanoma; SK-MEL-2 melanoma; SK-MEL-28 melanoma; DU-145 prostate; MDA-MB-231 breast.
Test in all cases: growth of human tumour cells (NCI), 48 h

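Following 48 hours of exposure in 96-well plates, responses at five concentrations were used to interpolate endpoints linearly. Abbreviation: GI50, concentration required for 50% inhibition of growth. TGI denotes the concentration required for complete inhibition of growth.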

In the case of `O=C1C2Nc3ccccc3SC2C(=O)N1c1ccc(Br)cc1` (centres undefined), the TGI was over 100 µM in the test with OVCAR-8 ovarian; over 100 µM with SNB-19 CNS; over 100 µM in the test with LOX IMVI melanoma; over 100 µM in the test with IGROV1 ovarian; 55.3 µM with SK-MEL-5 melanoma; over 100 µM in the test with SK-MEL-2 melanoma. The TGI with SK-MEL-28 melanoma was over 100 µM.
`COc1ccc(C/C(=N/O)C(=O)NCCc2cc(Br)c(OCCCN(C)C)c(Br)c2)cc1Br`: the TGI in the test on OVCAR-8 ovarian worked out at 49.1 µM; in the test with SNB-19 CNS, 32.6 µM; in the test with LOX IMVI melanoma, 30.1 µM; in the test on SK-MEL-2 melanoma it was 37.4 µM; with SK-MEL-28 melanoma it was 35.2 µM.
Take `CCC(C)CCOC(=O)c1ccc(N=Cc2ccc(C=Nc3ccc(C(=O)OCCC(C)CC)cc3)cc2)cc1` (centres undefined): the TGI with OVCAR-8 ovarian, in the test with SNB-19 CNS, in the test on LOX IMVI melanoma, in the test on IGROV1 ovarian, in the test on SK-MEL-5 melanoma and with SK-MEL-2 melanoma was over 100 µM each time. In addition, the TGI in the test with SK-MEL-28 melanoma was over 100 µM.
Take `COC(=O)C1CCc2c1c(=O)n1c([nH]c3ccccc31)c2C#N` (centres undefined): the TGI in the test on OVCAR-8 ovarian, in the test with SNB-19 CNS, in the test with LOX IMVI melanoma, in the test on IGROV1 ovarian, with SK-MEL-5 melanoma and with SK-MEL-2 melanoma was over 100 µM in each case. The same compound registered a TGI in the test on SK-MEL-28 melanoma of over 100 µM.
For the compound `O=C(NCCCCCCCCCCCCNC(=O)c1cccc2ccccc12)c1cccc2ccccc12`, the TGI in the test on OVCAR-8 ovarian was over 100 µM; in the test on SNB-19 CNS, over 73.6 µM; in the test on LOX IMVI melanoma it was over 100 µM; with IGROV1 ovarian, over 100 µM; in the test with SK-MEL-5 melanoma it was over 100 µM; in the test on SK-MEL-2 melanoma, over 100 µM. In addition, the TGI in the test on SK-MEL-28 melanoma was over 100 µM.
For the compound `Nc1ncnc2c1ncn2[C@]1(CO)C=C(CO)C(O)C1O` (some centres undefined), the TGI in the test on SNB-19 CNS, in the test on LOX IMVI melanoma, in the test with SK-MEL-5 melanoma, in the test on SK-MEL-2 melanoma and in the test on SK-MEL-28 melanoma was over 100 µM in each case.
Turning to `Cc1ccc(S(=O)(=O)OCCn2cnc3nc(NC(=O)c4ccccc4)[nH]c(=O)c32)cc1`, the TGI in the test on OVCAR-8 ovarian, in the test on SNB-19 CNS, in the test with LOX IMVI melanoma, in the test with IGROV1 ovarian, with SK-MEL-5 melanoma and in the test with SK-MEL-2 melanoma was over 100 µM in each case. Also, the TGI with SK-MEL-28 melanoma was over 100 µM.
On to `CC1=Nc2ccccc2S/C1=C(/C)NNS(=O)(=O)c1ccc(C)cc1`, for which the TGI in the test with OVCAR-8 ovarian, in the test on SNB-19 CNS, in the test with LOX IMVI melanoma, in the test on IGROV1 ovarian, in the test on SK-MEL-5 melanoma and with SK-MEL-2 melanoma was over 100 µM in each case. Besides, the TGI in the test on SK-MEL-28 melanoma is over 100 µM.
As to `O=C(/C=C/c1cc(Cl)cc(Cl)c1O)c1cccc(O)c1`, the TGI in the test on OVCAR-8 ovarian was over 100 µM; in the test on SNB-19 CNS it was over 100 µM; in the test on LOX IMVI melanoma, 25.5 µM; in the test on IGROV1 ovarian, over 100 µM; with SK-MEL-5 melanoma, over 100 µM; in the test on SK-MEL-2 melanoma it was 61.7 µM. The compound also came in with a TGI in the test with SK-MEL-28 melanoma of over 100 µM.
For `Cc1cn(C2CC(O)C(COC(=O)c3ccccc3)O2)c(=O)[nH]c1=O` (centres undefined), the TGI in the test on OVCAR-8 ovarian, with SNB-19 CNS, in the test on LOX IMVI melanoma, in the test on IGROV1 ovarian, in the test on SK-MEL-5 melanoma and in the test on SK-MEL-28 melanoma was over 100 µM each time.
On to `CCOC(=O)c1cc(C(=O)c2cc(OC)c(OC)c(OC)c2)n2ncccc12`, for which the GI50 with OVCAR-8 ovarian was 0.584 µM; with SNB-19 CNS, 0.705 µM; in the test on DU-145 prostate, 0.37 µM; with LOX IMVI melanoma, 2.46 µM; in the test with IGROV1 ovarian it was 3.47 µM; in the test on MDA-MB-231 breast, 1.82 µM. For the same compound, the GI50 with SK-MEL-5 melanoma was 0.247 µM; with SK-MEL-2 melanoma, 0.466 µM; in the test with SK-MEL-28 melanoma it was 4.68 µM. For the same compound, the TGI in the test on OVCAR-8 ovarian, in the test with SNB-19 CNS, in the test with DU-145 prostate, in the test with LOX IMVI melanoma, in the test with IGROV1 ovarian and in the test with MDA-MB-231 breast was over 100 µM in each case. The TGI with SK-MEL-5 melanoma, with SK-MEL-2 melanoma and with SK-MEL-28 melanoma was over 100 µM in each case.
With `COC(=O)C(Cc1cc(OC)c(OC)c(OC)c1)C(=O)OC`, the TGI with OVCAR-8 ovarian, in the test on LOX IMVI melanoma, in the test with IGROV1 ovarian, with SK-MEL-5 melanoma, in the test on SK-MEL-2 melanoma and with SK-MEL-28 melanoma was over 320 µM throughout.
`N#Cc1c(-c2ccc(Cl)c(Cl)c2)c(-c2ccc(Cl)c(Cl)c2)nn(CC(=O)O)c1=O`: the TGI with OVCAR-8 ovarian, with LOX IMVI melanoma, in the test on IGROV1 ovarian, in the test with SK-MEL-5 melanoma, with SK-MEL-2 melanoma and with SK-MEL-28 melanoma was over 100 µM each time.
As for `COC(=O)CC(NC(=O)OCc1ccccc1)C(C(C)=O)C(=O)OCc1ccccc1` (centres undefined), the TGI in the test with OVCAR-8 ovarian was over 31.6 µM; in the test on LOX IMVI melanoma it was over 100 µM; in the test on IGROV1 ovarian, over 31.6 µM; with SK-MEL-5 melanoma it was over 31.6 µM; in the test with SK-MEL-28 melanoma it was over 31.6 µM.
Take `COc1ccc(NC(=O)C(=O)c2c(O)c3ccc(O)cc3oc2=O)c([N+](=O)[O-])c1`: the TGI in the test with SNB-19 CNS, with LOX IMVI melanoma, in the test on IGROV1 ovarian, with SK-MEL-5 melanoma, in the test with SK-MEL-2 melanoma and in the test on SK-MEL-28 melanoma was over 100 µM throughout.
As for `Cc1cc(S(=O)(=O)Nc2nc3ccccc3o2)c(SCc2ccccc2)cc1Cl`, the GI50 in the test on OVCAR-8 ovarian was 21 µM; with SNB-19 CNS it was 21.6 µM; in the test on DU-145 prostate it was 26.5 µM; in the test with LOX IMVI melanoma, 14.9 µM; in the test on IGROV1 ovarian, 48.9 µM; in the test on MDA-MB-231 breast it was 35.9 µM. Also, the GI50 with SK-MEL-5 melanoma is 16.7 µM; with SK-MEL-2 melanoma, 48.6 µM; in the test on SK-MEL-28 melanoma, 25.6 µM. Further, the TGI in the test on OVCAR-8 ovarian is 50.2 µM; in the test on SNB-19 CNS, 67.8 µM; in the test on DU-145 prostate, 77.9 µM; in the test with LOX IMVI melanoma, 34.8 µM; in the test with IGROV1 ovarian it was over 100 µM; with MDA-MB-231 breast, 90.5 µM. The TGI in the test with SK-MEL-5 melanoma is 33.4 µM; in the test on SK-MEL-2 melanoma, over 100 µM; in the test on SK-MEL-28 melanoma it was 62.9 µM.
